Data as given in ChEMBL document CHEMBL1201862, “PubChem BioAssay data set” (2004).
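Dose response: 5 concentrations. Exposure: 48 h. Format: 96-well plates. Endpoint: linear interpolation; highest concentration if not reached. Abbreviation: GI50, concentration required for 50% inhibition of growth.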 Activity calls are given as the source filed them. No stated cut-off is given here; in the data, active = GI50 up to about 1.1 µM and inactive = higher.

Tests used:
Experiment in all cases: growth of human tumour cells (NCI), 48 h
786-0 = system: 786-0
A498 = system: A498
A549 = system: A549
ACHN = system: ACHN
CAKI-1 = system: CAKI-1
CCRF-CEM = system: CCRF-CEM
COLO 205 = system: COLO 205
DLD-1 = system: DLD-1
DMS-114 = system: DMS-114
DMS-273 = system: DMS-273
EKVX = system: EKVX
HCC 2998 = system: HCC 2998
HCT-116 = system: HCT-116
HCT-15 = system: HCT-15
HL-60 = system: HL-60
HOP-62 = system: HOP-62
HOP-92 = system: HOP-92
HT-29 = system: HT-29
IGROV-1 = system: IGROV-1
K562 = system: K562
KM-20L2 = system: KM-20L2
KM12 = system: KM12
LOX IMVI = system: LOX IMVI
LXFL 529 = system: LXFL 529
M14 = system: M14
M19-MEL = system: M19-MEL
MOLT-4 = system: MOLT-4
Malme-3M = system: Malme-3M
NCI-H226 = system: NCI-H226
NCI-H23 = system: NCI-H23
NCI-H460 = system: NCI-H460
NCI-H522 = system: NCI-H522
OVCAR-3 = system: OVCAR-3
OVCAR-4 = system: OVCAR-4
OVCAR-5 = system: OVCAR-5
OVCAR-8 = system: OVCAR-8
RPMI-8226 = system: RPMI-8226
RXF 393 = system: RXF 393
SF-268 = system: SF-268
SF-295 = system: SF-295
SF-539 = system: SF-539
SK-MEL-28 = system: SK-MEL-28
SK-MEL-2 = system: SK-MEL-2
SK-MEL-5 = system: SK-MEL-5
SN12C = system: SN12C
SNB-19 = system: SNB-19
SNB-75 = system: SNB-75
SNB-78 = system: SNB-78
SW-620 = system: SW-620
TK-10 = system: TK-10
U-251 = system: U-251
UACC-257 = system: UACC-257
UACC-62 = system: UACC-62
UO-31 = system: UO-31
XF498 = system: XF498

Measured: GI50

O=C/C1=C/C2=Cc3ccccc3C=C(/C=C(/C=O)C1)C2
inactive: 786-0 78.2 µM | A498 > 100 µM | A549 > 100 µM | ACHN > 100 µM | CAKI-1 41.1 µM | CCRF-CEM 16.2 µM | COLO 205 > 100 µM | DLD-1 38.4 µM | DMS-114 38.3 µM | DMS-273 34.2 µM | EKVX > 100 µM | HCC 2998 45.9 µM | HCT-116 19.4 µM | HL-60 41.5 µM | HOP-62 74.8 µM | HOP-92 27.7 µM | HT-29 40.5 µM | IGROV-1 > 100 µM | K562 18.1 µM | KM-20L2 > 100 µM | KM12 36.1 µM | LOX IMVI 33.9 µM | LXFL 529 30.3 µM | M14 43.4 µM | M19-MEL 53.8 µM | MOLT-4 15.8 µM | Malme-3M 90.4 µM | NCI-H226 43.2 µM | NCI-H23 32.9 µM | NCI-H460 81.1 µM | NCI-H522 > 100 µM | OVCAR-3 37.5 µM | OVCAR-4 46.7 µM | OVCAR-5 > 100 µM | OVCAR-8 28.9 µM | RPMI-8226 32 µM | RXF 393 28.1 µM | SF-268 38.1 µM | SF-295 29 µM | SF-539 46.6 µM | SK-MEL-28 39.6 µM | SK-MEL-2 > 100 µM | SK-MEL-5 35.3 µM | SN12C 42.6 µM | SNB-19 44.9 µM | SNB-75 27.2 µM | SNB-78 52.7 µM | SW-620 44.7 µM | TK-10 > 100 µM | U-251 34.3 µM | UACC-257 30.9 µM | UACC-62 73.6 µM | UO-31 34 µM | XF498 54.5 µM
31.4 µM: HCT-15
